These are literature values, as cited in PubChem BioAssay AID1259409 (Chemical Carcinogenesis Research Information System (CCRIS), 2018).

The subject of this data set is rodent chemically induced tumor inhibition, incidence and multiplicity. Kind of data set: CCRIS tumor inhibitor studies.

Where “and” joins values, the source holds several entries; their conditions need not be identical. Identical values can stand only once.

On to `CC(=O)O[C@H]1CC[C@@]2(C)C(=CC[C@@H]3[C@@H]2CC[C@]2(C)C(=O)CC[C@@H]32)C1`, for which the “tumour outcome (control, treated, inhibition, significance)” value (Carcinogen: 7,12-DIMETHYLBENZ[A]ANTHRACENE, 57-97-6, Dose [Inhibitor]: 0, 5 MG/100 G BW 1/WK FOR 150 D BEGINNING POST CARCINOGEN TREATMENT (STUDY DURATION: 150 D), Route [Inhibitor]: SUBCUTANEOUS, Species: RAT, Strain/Sex: WISTAR/FEMALE, Target Tissue: Type of Lesion: MAMMARY GLAND: ADENOCARCINOMA, Dose [Carcinogen]: 4 MG IN 0.1 ML OF SESAME OIL INJECTED ONCE INTO THE EXPOSED MAMMARY TISSUE OF HYPERPROLACTINEMIC RATS ON DAY 73 OF AGE, Promoter: NONE USED) was 8/11 (73%), 0/10 (0%), 100%, p<0.01.
As to `CC(C)(C)c1cccc(C(C)(C)C)c1O`, the “tumour outcome (control, treated, inhibition, significance)” value (Carcinogen: BENZO[A]PYRENE, 50-32-8, Dose [Inhibitor]: 0.03 MMOL/G OF DIET DAILY STARTING 7 D BEFORE AND CONTINUING THROUGH 3 D AFTER CARCINOGEN TREATMENT FOLLOWED BY OBSERVAT, Route [Inhibitor]: ORAL, Species: MOUSE, Strain/Sex: ICR/FEMALE, Target Tissue: Type of Lesion: FORESTOMACH: NEOPLASM, Dose [Carcinogen]: 1 MG IN 0.2 ML CORN OIL 2/WK FOR 4 WK, Promoter: NONE USED) is 94%, 79%, 16%, not significant.
For `CC(C)(C)C1=CC(=O)C=C(C(C)(C)C)C1=O`, the “tumour outcome (control, treated, inhibition, significance)” value (Carcinogen: 7,12-DIMETHYLBENZ[A]ANTHRACENE, 57-97-6, Dose [Inhibitor]: 0, 200 MG/KG BW/D FOR 3 WK BEGINNING 2 WK PRIOR TO CARCINOGEN DOSE (STUDY DURATION: 24 WK), Route [Inhibitor]: INTRAPERITONEAL, Species: RAT, Strain/Sex: SPRAGUE-DAWLEY/FEMALE, Target Tissue: Type of Lesion: MAMMARY GLAND: TUMOR, Dose [Carcinogen]: 33.3 MG/KG BW IN 0.25 ML CORN OIL ONCE AT 50 D OF AGE, Promoter: NONE USED) is given as 91%, 68%, 25%, not calculated.
For the compound `CC(=O)OC12C[C@@H](C)[C@@]3(O)[C@@H](C=C(CO)C[C@]4(O)C(=O)C(C)=C[C@@H]34)C1C2(C)C` (stereo partly drawn), the “tumour outcome (control, treated, inhibition, significance)” value was 100%, 95%, 5%, not calculated (Carcinogen: 7,12-DIMETHYLBENZ[A]ANTHRACENE, 57-97-6, Dose [Inhibitor]: 0, 256 NMOL 15 D POST INITIATION DOSE FOLLOWED BY 2.56 NMOL 2/WK DURING WK 3-22 APPLIED 15 MIN PRIOR TO EACH PROMOTION D, Route [Inhibitor]: DERMAL, Species: MOUSE, Strain/Sex: CD-1/FEMALE, Target Tissue: Type of Lesion: SKIN: PAPILLOMA, Dose [Carcinogen]: 20 NMOL IN 200 µL ACETONE ONCE); 94%, 40%, 57%, not calculated (Carcinogen: 7,12-DIMETHYLBENZ[A]ANTHRACENE, 57-97-6, Dose [Inhibitor]: 0, 256 NMOL 15 D POST INITIATION DOSE FOLLOWED BY 2.56 UMOL 2/WK DURING WK 3-22 APPLIED 15 MIN PRIOR TO EACH PROMOTION D, Route [Inhibitor]: DERMAL, Species: MOUSE, Strain/Sex: CD-1/FEMALE, Target Tissue: Type of Lesion: SKIN: PAPILLOMA, Dose [Carcinogen]: 20 NMOL IN 200 µL ACETONE ONCE); 94%, 83%, 12%, not calculated and 100%, 80%, 20%, not calculated (Carcinogen: 7,12-DIMETHYLBENZ[A]ANTHRACENE, 57-97-6, Dose [Inhibitor]: 0, 256 NMOL 15 D POST INITIATION DOSE FOLLOWED BY 25.6 NMOL 2/WK DURING WK 3-22 APPLIED 15 MIN PRIOR TO EACH PROMOTION D, Route [Inhibitor]: DERMAL, Species: MOUSE, Strain/Sex: CD-1/FEMALE, Target Tissue: Type of Lesion: SKIN: PAPILLOMA, Dose [Carcinogen]: 20 NMOL IN 200 µL ACETONE ONCE); 100%, 97%, 3%, not calculated (Carcinogen: 7,12-DIMETHYLBENZ[A]ANTHRACENE, 57-97-6, Dose [Inhibitor]: 0, 256 NMOL 15 D POST INITIATION DOSE FOLLOWED BY 25.6 PMOL 2/WK DURING WK 3-22 APPLIED 15 MIN PRIOR TO EACH PROMOTION D, Route [Inhibitor]: DERMAL, Species: MOUSE, Strain/Sex: CD-1/FEMALE, Target Tissue: Type of Lesion: SKIN: PAPILLOMA, Dose [Carcinogen]: 20 NMOL IN 200 µL ACETONE ONCE); 94%, 33%, 65%, not calculated and 100%, 58%, 42%, not calculated (Carcinogen: 7,12-DIMETHYLBENZ[A]ANTHRACENE, 57-97-6, Dose [Inhibitor]: 0, 256 NMOL 15 D POST INITIATION DOSE FOLLOWED BY 256 NMOL 2/WK DURING WK 3-22 APPLIED 15 MIN PRIOR TO EACH PROMOTION DO, Route [Inhibitor]: DERMAL, Species: MOUSE, Strain/Sex: CD-1/FEMALE, Target Tissue: Type of Lesion: SKIN: PAPILLOMA, Dose [Carcinogen]: 20 NMOL IN 200 µL ACETONE ONCE); 100%, 100%, 0%, not significant (Carcinogen: 7,12-DIMETHYLBENZ[A]ANTHRACENE, 57-97-6, Dose [Inhibitor]: 0, 256 NMOL 15 D POST INITIATION DOSE FOLLOWED BY 256 PMOL 2/WK DURING WK 3-22 APPLIED 15 MIN PRIOR TO EACH PROMOTION DO, Route [Inhibitor]: DERMAL, Species: MOUSE, Strain/Sex: CD-1/FEMALE, Target Tissue: Type of Lesion: SKIN: PAPILLOMA, Dose [Carcinogen]: 20 NMOL IN 200 µL ACETONE ONCE).
For `O=c1cc(-c2ccc(O)cc2)oc2cc(O)cc(O)c12`, the “tumour outcome (control, treated, inhibition, significance)” value runs as follows: (Carcinogen: 7,12-DIMETHYLBENZ[A]ANTHRACENE, 57-97-6, Dose [Inhibitor]: 0, 5 UMOL IN 0.2 ML ACETONE/DMSO (9:1) 2/WK FOR 20 WK APPLIED 30 MIN PRIOR TO EACH PROMOTER DOSE (STUDY DURATION: 30 WK), Route [Inhibitor]: DERMAL, Species: MOUSE, Strain/Sex: SENCAR/FEMALE, Target Tissue: Type of Lesion: SKIN: PAPILLOMA, Dose [Carcinogen]: 10 NMOL IN 0.2 ML ACETONE ONCE, Promoter: 12-O-TETRADECANOYLPHORBOL-13-ACETATE, 16561-29-8) 92%, 87%, 5%, not significant; (Carcinogen: UV-B IRRADIATION, Dose [Inhibitor]: 0, 5 UMOL IN 0.2 ML DMSO:ACETONE (1:9) 2.5-3 HR PRIOR TO EACH UV-B EXPOSURE (STUDY DURATION: 55 WK), Route [Inhibitor]: DERMAL, Species: MOUSE, Strain/Sex: SKH-1/FEMALE, Target Tissue: Type of Lesion: SKIN: SQUAMOUS CELL CARCINOMA, Dose [Carcinogen]: 745 MJ/CM2 5 D/WK FOR 11 WK, Promoter: NONE USED) 81%, 67%, 17%, not significant; (Carcinogen: UV-B IRRADIATION, Dose [Inhibitor]: 0, 10 UMOL IN 0.2 ML DMSO:ACETONE (1:9) 2.5-3 HR PRIOR TO EACH UV-B EXPOSURE (STUDY DURATION: 55 WK), Route [Inhibitor]: DERMAL, Species: MOUSE, Strain/Sex: SKH-1/FEMALE, Target Tissue: Type of Lesion: SKIN: SQUAMOUS CELL CARCINOMA, Dose [Carcinogen]: 745 MJ/CM2 5 D/WK FOR 11 WK, Promoter: NONE USED) 81%, 39%, 52%, not calculated.
With `CCC(C)C1NC(=O)C(C(C)=O)=C1O` (stereo not drawn), the “tumour outcome (control, treated, inhibition, significance)” value (Carcinogen: 7,12-DIMETHYLBENZ[A]ANTHRACENE, 57-97-6, Dose [Inhibitor]: 0, 250 UG 3/WK APPLIED 30 MIN PRIOR TO EACH PROMOTER DOSE FOR 140 D (STUDY DURATION: 140 D), Route [Inhibitor]: DERMAL, Species: MOUSE, Strain/Sex: SWISS/FEMALE, Target Tissue: Type of Lesion: SKIN: TUMOR, Dose [Carcinogen]: 200 NMOL IN 100 µL ACETONE ONCE, Promoter: 12-O-TETRADECANOYLPHORBOL-13-ACETATE, 16561-29-8) is recorded as 100%, 70%, 30%, not calculated.
